Measurements reported in patent US10111874B2, “Combination therapies for treatment of cancer” (Araxes Pharma LLC, priority 2014, dated 2018).

Experiments:
H358 cells (KRAS G12C) = assay: Western blots of downstream KRAS signaling nodes and apoptosis markers in H358 cells; format: cell-based; conditions: for apoptosis based on cleaved PARP levels / inhibition of downstream KRAS signaling nodes (Western blot): H358 cells; for apoptosis based on cleaved PARP levels: erlotinib 5 μM; for inhibition of downstream KRAS signaling nodes (Western blot): alone; for G1 arrest and induction of apoptosis: H358 cells (FIG. 9, left panel)
Description: FIG. 2 depicts western blot analysis of downstream targets of K-Ras signaling. […] Paclitaxel was used as a positive control. The western blots were probed with antibodies for p-AKT, p-ERK, total ERK, p-RSK, p-S6 and cleaved PARP. Cleaved PARP is indicative of apoptosis. B) A549 cells that express the G12S isoform of K-Ras were used a control for K-Ras G12C inhibitor specificity. A549 cells were treated as in A).
Western blots were used to analyze downstream KRAS signaling nodes (AKT, ERK, RSK, S6) and a marker of apoptosis (cleaved PARP).
Western blots were used to analyze downstream KRAS signaling nodes (AKT, ERK, RSK, S6) and a marker of apoptosis (cleaved PARP). […] Taxol (paclitaxel) was used as a positive control.
Western blots were used to analyze downstream KRAS signaling nodes (AKT, ERK, RSK, S6) and a marker of apoptosis (cleaved PARP). […] Caspase activity was measured using a standard caspase activity luminescence assay (Capase-Glo, Promega).

[1] = molecular target: T1, KRAS G12C 1-169, his-tagged protein, GDP-loaded (Homo sapiens, UniProt P01116, G12C); assay: Biochemical assay: covalent binding to KRAS G12C analyzed by mass spectrometry
T1 construct: KRAS G12C 1-169, his-tagged protein, GDP-loaded
T1 sequence (P01116 1-169 isoform P01116-2 G12C): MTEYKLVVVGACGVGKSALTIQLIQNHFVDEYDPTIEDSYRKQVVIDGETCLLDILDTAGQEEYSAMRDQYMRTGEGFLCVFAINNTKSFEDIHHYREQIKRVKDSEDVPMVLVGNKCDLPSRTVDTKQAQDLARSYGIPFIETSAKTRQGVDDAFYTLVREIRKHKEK

[2] = 24 hours, G12C inhibitors 10 μM, GDC0941 2 μM (FIG. 2)
[3] = compounds 48-246, measured at 2 h
[4] = I-74 15 μM, PD0325901 100 nM, GDC0941 1 μM

C=CC(=O)N1CCN(c2ncnc3cc(-c4c(O)ccc5ccccc45)c(Cl)cc23)CC1 [Compound I-153, 1-(4-(6-chloro-7-(2-hydroxynaphthalen-1-yl)quinazolin-4-yl)piperazin-1-yl)prop-2-en-1-one]
apoptosis based on cleaved PARP levels (H358 cells (KRAS G12C); [2]): minimal cleaved PARP
inhibition of downstream KRAS signaling nodes (Western blot) (H358 cells (KRAS G12C); 24 hours, 10 μM (FIG. 2)): clear and nearly complete inhibition of p-ERK, p-RSK, and p-S6, with partial inhibition of p-AKT
Binding % [1, 3]: ++++ (++++indicates binding activity greater than 75%)

O=C(NOC[C@H](O)CO)c1ccc(F)c(F)c1Nc1ccc(I)cc1F [PD0325901]
G1 arrest and induction of apoptosis (H358 cells (KRAS G12C)): G1 arrest with low to modest induction of apoptosis
apoptosis based on cleaved PARP levels (H358 cells (KRAS G12C); [4]): does not induce robust apoptosis

C=CC(=O)N1CCN(c2ncnc3c(F)c(-c4ccccc4F)c(Cl)cc23)CC1 [Compound I-158, 1-(4-(6-chloro-8-fluoro-7-(2-fluorophenyl)quinazolin-4-yl)piperazin-1-yl)prop-2-en-1-one]
apoptosis based on cleaved PARP levels (H358 cells (KRAS G12C); [2]): minimal cleaved PARP
inhibition of downstream KRAS signaling nodes (Western blot) (H358 cells (KRAS G12C); 24 hours, 10 μM (FIG. 2)): clear and nearly complete inhibition of p-ERK, p-RSK, and p-S6, with partial inhibition of p-AKT
Binding % [1, 3]: ++++ (++++indicates binding activity greater than 75%)

C=CC(=O)N1CCN(c2ncnc3cc(-c4ccccc4O)c(Cl)cc23)CC1 [Compound I-74, 1-(4-(6-chloro-7-(2-hydroxyphenyl)quinazolin-4-yl)piperazin-1-yl)prop-2-en-1-one]
inhibition of downstream KRAS signaling nodes (Western blot) (H358 cells (KRAS G12C); 15 μM, 24 hours): clear and nearly complete inhibition of p-ERK, p-RSK, and p-S6
apoptosis based on cleaved PARP levels (H358 cells (KRAS G12C); [4]): minimal cleaved PARP
Binding % [1, 3]: +++ (+++indicates binding activity greater than 50% and up to 75%)

C=CC(=O)N1CCN(c2ncnc3cc(-c4ccccc4CO)c(Cl)cc23)CC1 [Compound I-108, 1-(4-(6-chloro-7-(2-(hydroxymethyl)phenyl)quinazolin-4-yl)piperazin-1-yl)prop-2-en-1-one]
Binding % [1, 3]: ++ (++indicates binding activity greater than 25% and up to 50%)

C=CC(=O)N1CCN(c2ncnc3cc(-c4csc5ccccc45)c(Cl)cc23)CC1 [Compound I-198, 1-(4-(7-(benzo[d]thiophen-3-yl)-6-chloroquinazolin-4-yl)piperazin-1-yl)prop-2-en-1-one]
Binding % [1, 3]: ++++ (++++indicates binding activity greater than 75%)

C=CC(=O)N1CC(N2CCN(C(=O)CNc3cc(CC)c(Cl)cn3)CC2)C1 [II-74, 1-(3-(4-(2-(5-chloro-4-ethylpyridin-2-ylamino)acetyl)-piperazin-1-yl)azetidin-1-yl)prop-2-en-1-one]
G1 arrest and induction of apoptosis (H358 cells (KRAS G12C)): G1 arrest with low to modest induction of apoptosis
Binding % ([1]; determined at 2 hrs): + (+indicates binding activity from 5% to 20%)

C=CC(=O)N1CCN(c2c(C#N)cnc3c(F)c(-c4c(O)cccc4F)c(Cl)cc23)CC1 [Compound I-246, 4-(4-acryloylpiperazin-1-yl)-6-chloro-8-fluoro-7-(2-fluoro-6-hydroxyphenyl)quinoline-3-carbonitrile]
Binding % [1, 3]: ++++ (++++indicates binding activity greater than 75%)

C=CC(=O)N1CCN(c2ncnc3cc(Cl)c(-c4cccc(C#N)c4)cc23)CC1 [Compound I-19, 3-(4-(4-acryloylpiperazin-1-yl)-7-chloroquinazolin-6-yl)benzonitrile]
Binding % ([1]; compounds 1-47, measured at 24 h): ++ (++indicates binding activity greater than 25% and up to 50%)

C=CC(=O)N1CCN(c2ncnc3cc(-c4cc(C(N)=O)ccc4F)c(Cl)cc23)CC1 [Compound I-155, 3-(4-(4-acryloylpiperazin-1-yl)-6-chloroquinazolin-7-yl)-4-fluorobenzamide]
Binding % [1, 3]: ++ (++indicates binding activity greater than 25% and up to 50%)
